Laboratory results published in US12427133B2, “Combination therapies comprising schweinfurthin compounds for treating cancer” (The Penn State Research Foundation, priority 2018, dated 2025).

Key:
[1] = Tolerability / maximum tolerated dosage; conditions: in vivo
Method: TTI-7106 is used for these experiments near the maximum tolerated dosage (MTD) of 40 mg/kg. […] TTI-7106 is authenticated in batches based on the NMR spectroscopy and mass spectrometry. All experiments are carried out on equal groups of male and female mice.

B16.F10 melanoma cells = test: Surface calreticulin expression (immunogenic cell death) by flow cytometry; type: cell-based, mouse (C57BL/6); conditions: 24 hours of treatment
Method: B16.F10 melanoma cells were plated at 1.5-2.0×10^5 cells per well in 24-well plates in RPMI-1640 medium containing standard supplements and 10% fetal bovine serum (FBS) and incubated overnight at 37° C., 5% CO2. Compounds solubilized in dimethyl sulfoxide (DMSO) were added at the indicated concentrations and incubated for a further 24 hours at 37° C., 5% CO2. Control wells were treated with similar dilutions of DMSO. Cells were trypsinized and washed with FACS buffer (2% FBS+0.1% NaN3 in PBS) and seeded at 1-2×10^5 per well in 96-well round-bottom plates. Cells were stained with rabbit anti-calreticulin polyclonal antibody (1:100, Abcam ab2907) in FACS buffer for 30 minutes at 4° C. Following two washes, cells were labeled with goat anti-rabbit Alexa Fluor 488 (1:500, Thermo Fisher A11070) in FACS buffer for 30 minutes at 4° C. Cells were washed twice and labeled with 7-aminoactinomyosin D in order to exclude non-viable cells. Samples were immediately run on a BD LSR Fortessa flow cytometer and the data analyzed using FlowJo software.
(§1) Differences in tumor growth curves were evaluated by linear mixed models for longitudinal analysis and Kaplan-Meier survival curves were evaluated by log rank test. Differences in calreticulin expression were determined by two-way ANOVA with Bonferroni post-test. All data were analyzed using Graphpad Prism (version 7) or SAS (version 9.4) software.

B16.F10 tumors = test: In vivo tumor growth, survival and regression in the B16.F10 melanoma model with anti-PD-1 therapy; parameters: species or system C57BL/6J mice
Method: Groups of 8-week old C57BL/6J female mice were inoculated with 1×10^5 freshly cultured B16.F10 tumor cells subcutaneously in the left flank. Mice were monitored for the development of tumors and when palpable were randomized into groups. Mice received αPD-1 (clone RMP1-14; BioXCell) or control rat IgG (Sigma) at 200 μg/day intraperitoneally in a volume of 200 μl PBS twice per week for 3 weeks. Mice received daily TTI-4242 or TTI-3114 at 30 mg/kg/day or vehicle only for 5 consecutive days in a total volume of 100 μL. Tumors were measured with digital calipers and the tumor volume calculated as (length×width^2)/2. Mice were euthanized when the tumor volume exceeded 1500 mm^3, developed ascites or necrosis, or when mice became lethargic.
as §1

| SMILES | maximum tolerated dosage (MTD) [1] | toxicity ([1]; 30 mg/kg) | concentration at which high levels of surface calreticulin expression are induced (B16.F10 melanoma cells) | induction of surface calreticulin (B16.F10 melanoma cells; flow cytometry) | tumors / mice showing initial tumor regression (B16.F10 tumors; during the period of schweinfurthin administration) | tumor growth (rate / delay) (B16.F10 tumors; established s.c. B16.F10 tumors, schweinfurthin 30 mg/kg/day for 5 consecutive days, αPD-1 200 μg i.p. twice per week for 3 weeks) | MTD ([1]; both sexes, mouse) |
| --- | --- | --- | --- | --- | --- | --- | --- |
| COc1cc(/C=C/c2cc(O)c3c(c2)C[C@@H]2C(C)(C)[C@H](O)CC[C@@]2(C)O3)cc2c1ccn2C [TTI-4242] | nearly identical MTD | low toxicity | below 2 nM | induced surface calreticulin | 50% | neither αPD-1 alone (FIG. 2C) nor TTI-4242 alone (FIG. 2D) impacted tumor growth rate |  |
| COc1cc(/C=C/c2cc(O)c3c(c2)C[C@@H]2C(C)(C)[C@H](O)CC[C@@]2(C)O3)cc(O)c1/C=C/c1c(C)noc1C [TTI-7106] |  |  |  |  |  |  | 40 mg/kg |
